Paper PMC10011747, “Targeting androgen receptor and the variants by an orally bioavailable Proteolysis Targeting Chimeras compound in castration resistant prostate cancer” (eBioMedicine, 2023)
Where two headings read alike, the source gives them in different places.

How the values were obtained:
[1] = tested on: LNCaP, CWR22Rv1 and VCaP cells; assay: alamarBlue cell viability, all three cell lines; type: cell-based; conditions: Homo sapiens, 168 h; 7 days treatment; read-out: IC50 cell viability, range in all three cell lines
Description: Cells were seeded in triplicate in 96-well plates 1 day prior to drug treatment for all assays. For viability test and IC50 assessment, the alamarBlue™ Cell Viability Reagent (Thermo Fisher Scientific) was added to cells 7 days after PROTAC treatment, followed by fluorescence detection as the manufacturer instructed. The IC50 was calculated by dose-inhibition regression. For proliferation monitoring, 2, 4, 6 and 8 days after PROTAC treatment (day 0), viable cells were detected by MTT Cell Proliferation Kit I (Sigma–Aldrich) according to the manufacturer's instructions. Cellular caspase activity was measured by Caspase-Glo 3/7 Assay System (Promega) 1 or 2 days after the drug treatment.

[2] = molecular target: T1, AR-V7 (Homo sapiens, UniProt P10275); assay: AR-V7 degradation by western blot (AR-V7 specific antibody); type: cell-based; conditions: for DC50: 24 h treatment; for Dmax at 20 µM: maximum degradation at 20 μM
T1 construct: endogenous in cells; host or cells: CWR22Rv1, VCaP
T1 sequence (P10275 1-644 isoform P10275-3): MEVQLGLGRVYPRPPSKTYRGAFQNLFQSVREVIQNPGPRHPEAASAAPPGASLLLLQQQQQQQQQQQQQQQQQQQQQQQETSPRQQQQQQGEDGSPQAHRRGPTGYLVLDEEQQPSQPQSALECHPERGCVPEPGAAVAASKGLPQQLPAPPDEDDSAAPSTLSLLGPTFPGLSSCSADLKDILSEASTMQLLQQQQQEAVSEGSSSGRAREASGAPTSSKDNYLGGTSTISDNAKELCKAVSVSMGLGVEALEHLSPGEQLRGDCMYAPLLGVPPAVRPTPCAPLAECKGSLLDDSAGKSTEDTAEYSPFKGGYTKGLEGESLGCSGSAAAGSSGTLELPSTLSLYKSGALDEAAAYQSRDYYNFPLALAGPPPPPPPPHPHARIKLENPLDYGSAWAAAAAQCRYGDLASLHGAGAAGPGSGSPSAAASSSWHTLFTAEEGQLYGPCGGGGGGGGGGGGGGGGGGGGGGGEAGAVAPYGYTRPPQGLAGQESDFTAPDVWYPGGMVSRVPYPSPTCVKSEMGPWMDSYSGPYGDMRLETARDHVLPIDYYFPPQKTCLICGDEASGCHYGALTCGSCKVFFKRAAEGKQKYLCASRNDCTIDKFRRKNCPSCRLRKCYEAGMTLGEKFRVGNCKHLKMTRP
Description: To obtain total lysates, cells were lysed in RIPA buffer (50 mM Tris–HCl pH 8.0, 150 mM NaCl, 1% NP-40, 0.5% Na-deoxycholate, 0.5% SDS plus protease inhibitors). The lysates were resolved by SDS-polyacrylamide gel electrophoresis, and the protein expression was analyzed by western blotting using primary antibodies against AR (Millipore Cat# 06-680, RRID:AB_310214), AR-V7 (RevMAb Biosciences Cat# 31-1109-00, RRID:AB_2716436), GAPDH (Cell Signaling Technology Cat# 2118, RRID:AB_561053) and Actin (Sigma–Aldrich Cat# A5441, RRID:AB_476744). pLenti4/TO/Flag-AR or pLenti4/TO/Flag-TC-AR plasmid was co-transfected with HA-ubiquitin plasmid into 293T cells. 24 h after transfection, the cells were treated with 10 μM of the PROTAC compounds for 16 h, followed by 4-h treatment of 5 μM MG132. The cells were lysed with lysis buffer (50 mM Tris–HCl pH7.5, 150 mM NaCl, 0. 5% Triton X-100, 10% glycerol, 1 mM EDTA plus protease inhibitors) containing 1 ng/mL of N-ethylmaleimide, followed by immunoprecipitation with anti-Flag M2 (Sigma–Aldrich Cat# F3165, RRID:AB_259529) antibody. The ubiquitinated AR was then detected by western blotting using anti-HA (Sigma–Aldrich Cat# H3663, RRID:AB_262051) antibody.
Fig. 1 PROTAC-based AR degraders ITRI-90, ITRI-125 and ITRI-126 reduce AR and AR-V7 proteins in prostate cancer cell lines. (a) Chemical structure of the PROTAC AR degraders. (b) Representative western blots of AR protein levels in LNCaP, CWR22Rv1 and VCaP cells treated with the PROTAC degraders for 24 h. AR was detected by N-terminal antibody which also detects C-terminal truncated AR-V(ΔLBD) in CWR22Rv1 cells. AR-V7 specific antibody was used for AR-V7 detection. 4%–12% gradient gel was used to separate different species of AR-V(ΔLBD) near 75 kDa in CWR22Rv1 cell lysates. DC50 indicating the concentration required to achieve 50% degradation, was calculated based on normalized full-length AR and AR-V7 band intensity. Dmax is the maximum degradation achieved at 20 μM compound treatment. TEXT PRINTED IN THE PICTURE: (a) ITRI-90: AR DC50 (μM) LNCaP: 2.12 ± 0.93; AR DC50 (μM) CWR22Rv1: 5.73 ± 2.28; AR DC50 (μM) VCaP: 8.67 ± 4.87; AR-V7 DC50 (μM) CWR22Rv1: 4.72 ± 2.52; AR-V7 DC50 (μM) VCaP: 0.29 ± 0.15; AR Dmax (%) LNCaP: 88; AR Dmax (%) CWR22Rv1: 98; AR Dmax (%) VCaP: 90; AR-V7 Dmax (%) CWR22Rv1: 100; AR-V7 Dmax (%) VCaP: 63 | (a) ITRI-125: AR DC50 (μM) LNCaP: 6.10 ± 4.43; AR DC50 (μM) CWR22Rv1: 6.64 ± 1.87; AR DC50 (μM) VCaP: 9.05 ± 3.75; AR-V7 DC50 (μM) CWR22Rv1: 1.89 ± 1.06; AR-V7 DC50 (μM) VCaP: 0.52 ± 0.37; AR Dmax (%) LNCaP: 71; AR Dmax (%) CWR22Rv1: 96; AR Dmax (%) VCaP: 85; AR-V7 Dmax (%) CWR22Rv1: 99; AR-V7 Dmax (%) VCaP: 67 | (a) ITRI-126: AR DC50 (μM) LNCaP: 3.41 ± 3.13; AR DC50 (μM) CWR22Rv1: 0.11 ± 0.02; AR DC50 (μM) VCaP: 0.851 ± 0.43; AR-V7 DC50 (μM) CWR22Rv1: 0.011 ± 0.003; AR-V7 DC50 (μM) VCaP: 0.43 ± 0.19; AR Dmax (%) LNCaP: 99; AR Dmax (%) CWR22Rv1: 74; AR Dmax (%) VCaP: 94; AR-V7 Dmax (%) CWR22Rv1: 91; AR-V7 Dmax (%) VCaP: 82

[3] = CWR22Rv1 cells, read-out: AR-V7 DC50 CWR22Rv1
[4] = CWR22Rv1 cells, read-out: AR-V7 Dmax CWR22Rv1
[5] = VCaP cells, read-out: AR-V7 DC50 VCaP
[6] = VCaP cells, read-out: AR-V7 Dmax VCaP

| Structure (SMILES) | IC50 [1] [nM] | DC50 [2, 3] [nM] | Dmax at 20 µM [2, 4] [%] | DC50 [2, 5] [nM] | Dmax at 20 µM [2, 6] [%] |
| --- | --- | --- | --- | --- | --- |
| Cc1ncsc1-c1ccc(CNC(=O)[C@@H]2C[C@H](O)CN2C(=O)[C@@H](NC(=O)COCCCCCCOc2ccc(C3CCN(C4=Nn5c(nnc5C(F)(F)F)CC4)CC3)cc2)C(C)(C)C)cc1 [ITRI-125, (2S,4S)-1-((S)-3,3-dimethyl-2-(2-(6-(4-(1-(3-(trifluoromethyl)-7,8-dihydro-[1,2,4]triazolo[4,3-b]pyridazin-6-yl)piperidin-4-yl)phenoxy)hexyloxy)acetamido)butanoyl)-4-hydroxy-N-(4-(4-methylthiazol-5-yl)benzyl)pyrrolidine-2-carboxamide] | 3000 to 6000 | 1890 ± 1060 | 99 | 520 ± 370 | 67 |
| O=C1CCC(N2Cc3c(NC(=O)COCCCCOc4ccc(C5CCN(C6=Nn7c(nnc7C(F)(F)F)CC6)CC5)cc4)cccc3C2=O)C(=O)N1 (stereo not drawn) [ITRI-126, N-(2-(2,6-dioxopiperidin-3-yl)-1-oxoisoindolin-4-yl)-2-(4-(4-(1-(3-(trifluoromethyl)-7,8-dihydro-[1,2,4]triazolo[4,3-b]pyridazin-6-yl)piperidin-4-yl)phenoxy)butoxy)acetamide] | 70 to 400 | 11 ± 3 | 91 | 430 ± 190 | 82 |
| Cc1ncsc1-c1ccc(CNC(=O)[C@@H]2C[C@H](O)CN2C(=O)[C@@H](NC(=O)COCCCCOc2ccc(C3CCN(C4=Nn5c(nnc5C(F)(F)F)CC4)CC3)cc2)C(C)(C)C)cc1 [ITRI-90, (2S,4S)-1-((S)-3,3-dimethyl-2-(2-(4-(4-(1-(3-(trifluoromethyl)-7,8-dihydro-[1,2,4]triazolo[4,3-b]pyridazin-6-yl)piperidin-4-yl)phenoxy)butoxy)acetamido)butanoyl)-4-hydroxy-N-(4-(4-methylthiazol-5-yl)benzyl)pyrrolidine-2-carboxamide] | 3000 to 6000 | 4720 ± 2520 | 100 | 290 ± 150 | 63 |
